Laboratory results: patent US20100324138A1, “Lipoxin A4 Protection for Retinal Cells” (priority 2007, published 2010)
Like-named read-outs stand apart in the source and are kept apart here.

How the values were obtained:
ARPE-19 cells [1] = assay: Inhibition of apoptosis induced by oxidative stress (TNF-α/H2O2) in RPE cells, Hoechst staining; assay type: cell-based, human; settings: TNF-α 10 ng/ml + H2O2 600 uM, 14 h, FIG. 1
Method: (§1) ARPE-19 cells (L. M. Hjelmeland, ATCC #CRL-2302) were grown and maintained in DMEM-F12 medium supplemented with 10% FBS and incubated at 37° C. with a constant supply of 5% CO2. ARPE-19 cells are spontaneously transformed human retinal pigment epithelial cells that conserve cellular biological and functional properties. All chemicals were purchased from Sigma Chemical Co. (St. Louis, Mo.) unless otherwise indicated.
ARPE-19 cells growing in DMEM-F-12 medium for 72 h were serum starved for 8 h before induction of oxidative stress, as described in P. K. Mukherjee et al., “Photoreceptor outer segment phagocytosis attenuates oxidative stress-induced apoptosis with concomitant neuroportectin D1 synthesis,” PNAS, vol. 104, pp. 13158-13163 (2007). Oxidative stress was introduced by TNF-α (10 ng/ml) and H2O2 (600 uM) for 14 h and challenged with different concentrations of either lipoxin-A4 or lipoxin A4 epimer 15 (10 nM, 50 nM, and 100 nM; Calbiochem, Madison, Wis.), as indicated in FIG. 1. In initial experiments to test whether lipoxin caused stress, lipoxin A4 and lipoxin A4 epimer 15 were added to RPE cells in which oxidative stress had not been induced with TNF-α or H2O2. The apoptotic cell death was scored by Hoechst staining, as described in Mukherjee et al., 2007. The results were expressed as percentage inhibition of apoptosis by counting the Hoechst positive cells, and are shown in FIG. 1.

ARPE-19 cells [2] = assay: Apoptosis in RPE cells in which oxidative stress had not been induced (test whether lipoxin caused stress), Hoechst staining; assay type: cell-based
Method: as §1
ARPE-19 cells growing in DMEM-F-12 medium for 72 h were serum starved for 8 h before induction of oxidative stress, as described in P. K. Mukherjee et al., “Photoreceptor outer segment phagocytosis attenuates oxidative stress-induced apoptosis with concomitant neuroportectin D1 synthesis,” PNAS, vol. 104, pp. 13158-13163 (2007). Oxidative stress was introduced by TNF-α (10 ng/ml) and H2O2 (600 uM) for 14 h and challenged with different concentrations of either lipoxin-A4 or lipoxin A4 epimer 15 (10 nM, 50 nM, and 100 nM; Calbiochem, Madison, Wis.), as indicated in FIG. 1. […] The apoptotic cell death was scored by Hoechst staining, as described in Mukherjee et al., 2007. The results were expressed as percentage inhibition of apoptosis by counting the Hoechst positive cells, and are shown in FIG. 1.

COX-2 promoter construct = assay: Interleukin-1β induced COX-2 promoter construct (huCOX-2-LUC) luciferase assay in RPE cells; assay type: cell-based, human; settings: IL-1β 10 ng/ml, 14 h
Method: COX-2 is a proinflammatory protein that participates in RPE cell injury. ARPE-19 cells were grown over night in six well plates and then transfected with huCOX-2-LUC (−830) promoter construct (5 ug) for 24 h. Transfected cells were serum starved for 8 h before the addition of IL-1β (10 ng/ml). IL-1β treated cells were challenged with 100 nM, 500 nM, and 1000 nM concentrations of lipoxin A4 and lipoxin A4 epimer 15 for 14 h. Cells were then harvested, and luciferase assays were performed using luciferin as substrate.

ARPE-19 cells [3] = assay: Lipoxins and NPD1 combined effect on apoptosis induced by oxidative stress in RPE cells; assay type: cell-based, human; settings: NPD1 30 nM with lipoxin A4 or its analog 100 nM, 14 h; FIG. 2
Method: The growth of RPE cells, serum starvation, and induction of apoptosis were the same as described above in Example 1 and in Mukherjee et al., 2007. To test for a synergistic effect between lipoxin A4 and […] (NPD1), the oxidative-stressed RPE cells were treated with NPD1 (30 nM) and with lipoxin A4 or its analog (100 nM) for 14 h as indicated in FIG. 2. The percent apoptosis is expressed as described above in Example 1 as a percentage of the Hoechst positive cells.

[4] = 100, 500, 1000 nM, luciferase, FIG. 3

| SMILES | inhibition of apoptosis in RPE cells under oxidative stress (ARPE-19 cells [1]; 100 nM) | inhibition of apoptosis in RPE cells under oxidative stress (ARPE-19 cells [1]; 10, 50, 100 nM) | induction of apoptosis in RPE cells (ARPE-19 cells [2]; no oxidative stress (no TNF-α or H2O2), Hoechst positive cells, FIG. 1) | inhibition of IL-1β mediated induction of COX-2 promoter construct (COX-2 promoter construct; 100 nM (lowest inhibition)) [%] | inhibition of IL-1β mediated induction of COX-2 promoter construct (COX-2 promoter construct; 1000 nM) | inhibition of IL-1β mediated induction of COX-2 promoter construct (COX-2 promoter construct; [4]) | effect of lipoxin combined with NPD1 on oxidative stress-induced apoptosis (ARPE-19 cells [3]) | induction of apoptosis in RPE cells (ARPE-19 cells [2]) |
| --- | --- | --- | --- | --- | --- | --- | --- | --- |
| CCCCC[C@@H](O)/C=C/C=C\C=C\C=C\[C@@H](O)[C@@H](O)CCCC(=O)O (single isomer, unassigned; epimer 15) [lipoxin A4 epimer 15, 15-epi-lipoxin A4] | highest inhibition | able to inhibit apoptosis in RPE cells in a concentration-dependent manner | did not induce apoptosis | 35 | highest | inhibit IL-1β mediated induction of COX-2 promoter construct in RPE cells in a concentration-dependent manner | – | – |
| CC/C=C\C[C@H](O)\C=C/C=C/C=C/[C@H](O)C/C=C\C/C=C\CCC(=O)O [NPD1, neuroprotectin D1, reference compound] | – | – | – | – | – | – | additive | – |
| CCCCC[C@H](O)/C=C/C=C\C=C\C=C\[C@@H](O)[C@@H](O)CCCC(=O)O [lipoxin A4] | highest inhibition | able to inhibit apoptosis in RPE cells in a concentration-dependent manner | – | 35 | highest | inhibit IL-1β mediated induction of COX-2 promoter construct in RPE cells in a concentration-dependent manner | additive | did not induce apoptosis |
